These results are taken from ChEMBL document CHEMBL1149009, “Antitumor agents, 79. Cytotoxic antileukemic alkaloids from Brucea antidysenterica” (1986).

In brackets after ≈: the same amount, converted by molar mass. Activity calls are given as the source filed them. The calls are words filed in the database; no cut-off is given here.

Type in all cases: functional
The subject of assay [1] is P388. As to the kind of experiment: In vivo antitumor activity against mouse P388 cells at 25 mg/kg after 3 days.
Another assay relates to KB. As to the kind of experiment: Cytotoxicity against human KB cells. The note with it: for EC50: read-out: ED50 (the source's name).
For assay [2], the system named is P388. As to the kind of experiment: In vivo antitumor activity against mouse P388 cells at 200 mg/kg after 1 day.

In the assay on P388 [1], `COc1cccc2c1c1c(OC)cnc3ccc(=O)n2c31` gave a T/C of 122%. Also, the EC50 in the assay on KB was 1 µg/mL (≈ 3.57 µM).

For the compound `O=c1ccc2nccc3c4c(O)cccc4n1c23`, in the assay on KB, the EC50 was ≤ 4 µg/mL.

For `O=c1ccc2nccc3c4ccccc4n1c23`, in the assay with KB, the result was inactive.

For the compound `O=c1[nH]cc(F)c(=O)[nH]1` [FLUOROURACIL], the T/C in the assay with P388 [2] amounted to 135%.

A word on the T/C: it is the result in the treated group divided by that in the control group, in per cent.
